From the NIST ThermoML archive (doi:10.1021/je900525f)
± gives the expanded uncertainty stated by the source.

Legend:
[1] = 101 kPa, Liquid; for viscosity: Capillary tube (Ostwald / Ubbelohde) method; for speed of sound: Pulse-echo method
[2] = xn = mol fraction of the nth substance listed; conditions: 101 kPa, Liquid; for viscosity: Capillary tube (Ostwald / Ubbelohde) method; for speed of sound: Pulse-echo method

N#CCc1ccccc1 [benzeneacetonitrile]
mass density ([1]; 303.15 K): 1008.8 ± 0.7 kg/m3 | viscosity ([1]; 303.15 K): 1.761 ± 0.016 mPa·s | speed of sound ([1]; 303.15 K): 1519.2 ± 9.2 m/s | mass density ([1]; 308.15 K): 1004.1 ± 0.7 kg/m3 | viscosity ([1]; 308.15 K): 1.602 ± 0.015 mPa·s | speed of sound ([1]; 308.15 K): 1512.9 ± 9.2 m/s | mass density ([1]; 313.15 K): 999.5 ± 0.8 kg/m3 | viscosity ([1]; 313.15 K): 1.489 ± 0.015 mPa·s | speed of sound ([1]; 313.15 K): 1503.4 ± 9.1 m/s

N#CCc1ccccc1 [benzeneacetonitrile] + CCOC(=O)CC#N
viscosity ([2]; 303.15 K, x1 = 1): 1.761 ± 0.016 mPa·s | speed of sound ([2]; 303.15 K, x1 = 1): 1519.2 ± 9.2 m/s | mass density ([2]; 303.15 K, x1 = 1): 1008.8 ± 0.7 kg/m3 | viscosity ([2]; 308.15 K, x1 = 1): 1.602 ± 0.015 mPa·s | speed of sound ([2]; 308.15 K, x1 = 1): 1512.9 ± 9.2 m/s | mass density ([2]; 308.15 K, x1 = 1): 1004.1 ± 0.7 kg/m3 | viscosity ([2]; 313.15 K, x1 = 1): 1.489 ± 0.015 mPa·s | speed of sound ([2]; 313.15 K, x1 = 1): 1503.4 ± 9.1 m/s | mass density ([2]; 313.15 K, x1 = 1): 999.5 ± 0.8 kg/m3

N#CCc1ccccc1 [benzeneacetonitrile] + CCOC(=O)CCl
viscosity ([2]; 303.15 K, x1 = 1): 1.761 ± 0.016 mPa·s | speed of sound ([2]; 303.15 K, x1 = 1): 1519.2 ± 9.2 m/s | mass density ([2]; 303.15 K, x1 = 1): 1008.8 ± 0.7 kg/m3 | viscosity ([2]; 308.15 K, x1 = 1): 1.602 ± 0.015 mPa·s | speed of sound ([2]; 308.15 K, x1 = 1): 1512.9 ± 9.2 m/s | mass density ([2]; 308.15 K, x1 = 1): 1004.1 ± 0.7 kg/m3 | viscosity ([2]; 313.15 K, x1 = 1): 1.489 ± 0.015 mPa·s | speed of sound ([2]; 313.15 K, x1 = 1): 1503.4 ± 9.1 m/s | mass density ([2]; 313.15 K, x1 = 1): 999.5 ± 0.8 kg/m3

CCOC(C)=O [ethyl acetate]
mass density ([1]; 303.15 K): 888.9 ± 0.5 kg/m3 | viscosity ([1]; 303.15 K): 0.379 ± 0.01 mPa·s | speed of sound ([1]; 303.15 K): 1118.5 ± 6.8 m/s | mass density ([1]; 308.15 K): 882.6 ± 0.5 kg/m3 | viscosity ([1]; 308.15 K): 0.361 ± 0.01 mPa·s | speed of sound ([1]; 308.15 K): 1097.8 ± 6.6 m/s | mass density ([1]; 313.15 K): 875.9 ± 0.5 kg/m3 | viscosity ([1]; 313.15 K): 0.344 ± 0.01 mPa·s | speed of sound ([1]; 313.15 K): 1081.2 ± 6.5 m/s

CCOC(C)=O [ethyl acetate] + N#CCc1ccccc1
viscosity ([2]; 303.15 K, x2 = 0): 0.379 ± 0.01 mPa·s | speed of sound ([2]; 303.15 K, x2 = 0): 1118.5 ± 6.8 m/s | mass density ([2]; 303.15 K, x2 = 0): 888.9 ± 0.5 kg/m3 | viscosity ([2]; 308.15 K, x2 = 0): 0.361 ± 0.01 mPa·s | speed of sound ([2]; 308.15 K, x2 = 0): 1097.8 ± 6.6 m/s | mass density ([2]; 308.15 K, x2 = 0): 882.6 ± 0.5 kg/m3 | viscosity ([2]; 313.15 K, x2 = 0): 0.344 ± 0.01 mPa·s | speed of sound ([2]; 313.15 K, x2 = 0): 1081.2 ± 6.5 m/s | mass density ([2]; 313.15 K, x2 = 0): 875.9 ± 0.5 kg/m3

CCOC(=O)CCl [ethyl chloroethanoate]
mass density ([1]; 303.15 K): 1139.3 ± 0.9 kg/m3 | viscosity ([1]; 303.15 K): 0.9692 ± 0.012 mPa·s | speed of sound ([1]; 303.15 K): 1229.4 ± 7.5 m/s | mass density ([1]; 308.15 K): 1132.5 ± 0.9 kg/m3 | viscosity ([1]; 308.15 K): 0.8979 ± 0.012 mPa·s | speed of sound ([1]; 308.15 K): 1212.4 ± 7.4 m/s | mass density ([1]; 313.15 K): 1125.9 ± 0.9 kg/m3 | viscosity ([1]; 313.15 K): 0.8341 ± 0.012 mPa·s | speed of sound ([1]; 313.15 K): 1197.6 ± 7.3 m/s

CCOC(=O)CC#N [ethyl cyanoacetate]
mass density ([1]; 303.15 K): 1051.4 ± 1.4 kg/m3 | viscosity ([1]; 303.15 K): 2.186 ± 0.027 mPa·s | speed of sound ([1]; 303.15 K): 1396.9 ± 8.6 m/s | mass density ([1]; 308.15 K): 1046.5 ± 1.4 kg/m3 | viscosity ([1]; 308.15 K): 1.962 ± 0.024 mPa·s | speed of sound ([1]; 308.15 K): 1384.8 ± 8.6 m/s | mass density ([1]; 313.15 K): 1040.8 ± 1.5 kg/m3 | viscosity ([1]; 313.15 K): 1.77 ± 0.022 mPa·s | speed of sound ([1]; 313.15 K): 1367.7 ± 8.5 m/s
